Source: US20150219624A1, “METHODS FOR IDENTIFYING ANTI-CANCER COMPOUNDS” (MEMORIAL SLOAN KETTERING CANCER CENTER, priority 2013, published 2015)

Test system: KOPTK1 cells
Experiment: Transcriptome-scale ribosome footprinting (translational efficiency, rDiff ribosome distribution)
Type: cell-based, human
Conditions: for log2(Translational Efficiency): TE down genes with G-Quadruplex structure
Description: Ribosome Footprinting. KOPTK1 cells were treated with silvestrol or DMSO for 45 minutes, followed by cycloheximide treatment for 10 minutes and then harvested for total RNA and ribosome footprint fragment isolation. Total RNA was isolated using RNA isolation kit from Qiagen (74104) and subjected to RNA sequencing. Ribosome protected fragments were isolated following published protocol (Ingolia et al., 2009). Briefly cell lysates were subjected to ribosome footprinting by nuclease treatment. Footprint fragments were purified by one step sucrose cushion and gel extraction. Deep sequencing libraries were generated from these fragments. Both total RNA and footprint fragment libraries were analyzed by sequencing on the HiSeq 2000 platform.
Sequence Alignment. Sequences were aligned to the transcripts available from the human genome sequence hg19 from UCSC public database. Ribosome footprint (RF) reads were aligned to reference genome hg19 using PALMapper (Jean et al., 2010). Only the uniquely aligned reads were used for analysis. Read length of 25- to 35-bp was selected and used to analyze the translation effect of silvestrol. Total mRNA sequencing reads were aligned to the hg19 reference using STAR (Dobin et al., 2013). The splice alignment was used, and only used the uniquely aligned reads with maximum 3 mismatches.
Footprint Profile Analysis. The genome annotation was from GENCODE project (http://www.gencodegenes.org/releases/14.html). Ribosome footprint intensity (reads per million, RPM) and the expression value (reads per kilobase per million, RPKM) were measured from total mRNA-seq data and translation values were measured from ribosome footprint data. To evaluate the translation efficiency (TE) change between silvestrol- and vehicle-treated samples, TE was calculated as RPKMfootprint/RPKMmRNA (as Thoreen et al. did recently (Thoreen et al., 2012)). Changes in ribosome footprint profiles were determined by using DEXSeq algorithm (Anders et al., 2012). DEXSeq accounts for the discrete nature of the read counts and models biological variability to avoid false positives. Ratio of TEsilvestrol/TEcontrol of all the genes was plotted and color-highlighted according to the statistical significance of DEXSeq test.
Ribosome distribution analysis. The ribosomal distribution change was evaluated between silvestrol treated samples and controls. A BED file containing all non-overlapped exonic regions was generated based on genome annotation. Then the BED file and footprint BAM files were given as an input to SAMTOOLS (Li et al., 2009a) to generate new BAM files that only included exonic alignment. The exonic BAM files were input for two conditions to rDiff (Drewe et al., 2013) to identify genes that presented significant change in ribosomal distribution.
Sequence Alignment. The human genome sequence hg19 was downloaded from UCSC public database: http://hgdownload.cse.ucsc.edu/goldenPath/hg19/chromosomes. Ribosome footprint (RF) reads were aligned to reference genome hg19 using PALMapper (Jean et al., 2010). PALMapper clips the linker sequence (5′-[…]-3′), which is technically introduced during RF library construction, and trims the remaining sequence from the 3′ end while aligning the reads to reference sequence. Briefly, the parameters for PALMapper were set as follows: maximum number of mismatches: 2; maximum number of gaps: 0; minimum aligning length: 15; maximum intron length (splice alignment): 10000; minimum length of a splicing read aligned to either side of the intron boundary: 10. Only the uniquely aligned reads were used for further analysis.
To remove ribosome RNA contamination, the footprint reads were also aligned to a ribosome sequence database using PALMapper with the same parameters except allowing splice alignment. […]

Compound: COC(=O)[C@H]1[C@@H](O)[C@@]2(O)c3c(OC)cc(O[C@@H]4O[C@@H]([C@H](O)CO)CO[C@H]4OC)cc3O[C@@]2(c2ccc(OC)cc2)[C@@H]1c1ccccc1 [silvestrol]
- effect on cap-dependent translation (ribosome footprints) (25 nM, 45 minutes): immediate and broad inhibitory effect
- log2(Translational Efficiency) (gene ADAM10 (ENSG00000137845)): −0.2089
- log2(Translational Efficiency) (gene AFTPH (ENSG00000119844)): −0.5917
- log2(Translational Efficiency) (gene ATP2B4 (ENSG00000058668)): −0.3028
- log2(Translational Efficiency) (gene BCL11B (ENSG00000127152)): −0.5178
- log2(Translational Efficiency) (gene C16orf72 (ENSG00000182831)): −0.2553
- log2(Translational Efficiency) (gene CAMK2D (ENSG00000145349)): −0.4082
- log2(Translational Efficiency) (gene CCRN4L (ENSG00000151014)): −0.4802
- log2(Translational Efficiency) (gene CDIPT (ENSG00000103502)): −0.324
- log2(Translational Efficiency) (gene CERS6 (ENSG00000172292)): −0.2051
- log2(Translational Efficiency) (gene CHIC2 (ENSG00000109220)): −0.5212
- log2(Translational Efficiency) (gene CHST11 (ENSG00000171310)): −0.146
- log2(Translational Efficiency) (gene CPSF4 (ENSG00000160917)): −0.3194
- log2(Translational Efficiency) (gene DIAPH1 (ENSG00000131504)): −0.2136
- log2(Translational Efficiency) (gene DOM3Z (ENSG00000204348)): −0.5959
- log2(Translational Efficiency) (gene DYNLL2 (ENSG00000121083)): −0.1378
- log2(Translational Efficiency) (gene EP300 (ENSG00000100393)): −0.4645
- log2(Translational Efficiency) (gene FAM49B (ENSG00000153310)): −0.1392
- log2(Translational Efficiency) (gene FKRP (ENSG00000181027)): −0.996
- log2(Translational Efficiency) (gene FOXJ2 (ENSG00000065970)): −0.4735
- log2(Translational Efficiency) (gene GABARAPL1 (ENSG00000139112)): −1.234
- log2(Translational Efficiency) (gene GIPC1 (ENSG00000123159)): −0.4783
- log2(Translational Efficiency) (gene GNB1 (ENSG00000078369)): −0.1338
- log2(Translational Efficiency) (gene GYG2 (ENSG00000056998)): −0.9297
- log2(Translational Efficiency) (gene HDGFRP3 (ENSG00000166503)): −0.6088
- log2(Translational Efficiency) (gene HIPK1 (ENSG00000163349)): −0.2827
- log2(Translational Efficiency) (gene ITPR1 (ENSG00000150995)): −0.6283
- log2(Translational Efficiency) (gene MAP3K2 (ENSG00000169967)): −0.377
- log2(Translational Efficiency) (gene MAPKAPK2 (ENSG00000162889)): −0.3527
- log2(Translational Efficiency) (gene MBNL1 (ENSG00000152601)): −0.1522
- log2(Translational Efficiency) (gene MED13 (ENSG00000108510)): −0.2939
- log2(Translational Efficiency) (gene MED13L (ENSG00000123066)): −0.4159
- log2(Translational Efficiency) (gene MGRN1 (ENSG00000102858)): −0.3096
- log2(Translational Efficiency) (gene MTA2 (ENSG00000149480)): −0.2235
- log2(Translational Efficiency) (gene MYO9A (ENSG00000066933)): −0.4735
- log2(Translational Efficiency) (gene NANS (ENSG00000095380)): −0.3218
- log2(Translational Efficiency) (gene NDFIP1 (ENSG00000131507)): −0.2429
- log2(Translational Efficiency) (gene PABPC4 (ENSG00000090621)): −0.2428
- log2(Translational Efficiency) (gene PAFAH1B1 (ENSG00000007168)): −0.3832
- log2(Translational Efficiency) (gene PAFAH1B2 (ENSG00000168092)): −0.3883
- log2(Translational Efficiency) (gene PAIP2 (ENSG00000120727)): −0.1573
- log2(Translational Efficiency) (gene PAK4 (ENSG00000130669)): −0.628
- log2(Translational Efficiency) (gene PANX1 (ENSG00000110218)): −0.3987
- log2(Translational Efficiency) (gene PATZ1 (ENSG00000100105)): −0.3245
- log2(Translational Efficiency) (gene PPP6R1 (ENSG00000105063)): −0.1576
- log2(Translational Efficiency) (gene PTGER4 (ENSG00000171522)): −0.2748
- log2(Translational Efficiency) (gene PTP4A2 (ENSG00000184007)): −0.1429
- log2(Translational Efficiency) (gene QKI (ENSG00000112531)): −0.2913
- log2(Translational Efficiency) (gene RFXANK (ENSG00000064490)): −0.3247
- log2(Translational Efficiency) (gene RNF4 (ENSG00000063978)): −0.3442
- log2(Translational Efficiency) (gene RNF19A (ENSG00000034677)): −0.4839
- log2(Translational Efficiency) (gene RPS12 (ENSG00000112306)): −0.1732
- log2(Translational Efficiency) (gene SHISA2 (ENSG00000180730)): −0.6086
- log2(Translational Efficiency) (gene SLC25A22 (ENSG00000177542)): −0.3386
- log2(Translational Efficiency) (gene SLC35B3 (ENSG00000124786)): −0.9178
- log2(Translational Efficiency) (gene SMEK1 (ENSG00000100796)): −0.1765
- log2(Translational Efficiency) (gene SRRM2 (ENSG00000167978)): −0.08166
- log2(Translational Efficiency) (gene STAG2 (ENSG00000101972)): −0.1873
- log2(Translational Efficiency) (gene TAF6 (ENSG00000106290)): −0.2102
- log2(Translational Efficiency) (gene TBC1D24 (ENSG00000162065)): −1.231
- log2(Translational Efficiency) (gene TGFB1 (ENSG00000105329)): −0.2213
- log2(Translational Efficiency) (gene TLE3 (ENSG00000140332)): −0.2278
- log2(Translational Efficiency) (gene TMEM248 (ENSG00000106609)): −0.2362
- log2(Translational Efficiency) (gene TNRC6B (ENSG00000100354)): −0.4442
- log2(Translational Efficiency) (gene TRIM2 (ENSG00000109654)): −2.147
- log2(Translational Efficiency) (gene TUBGCP4 (ENSG00000137822)): −0.5346
- log2(Translational Efficiency) (gene UBE2G1 (ENSG00000132388)): −0.3367
- log2(Translational Efficiency) (gene USP20 (ENSG00000136878)): −0.2066
- log2(Translational Efficiency) (gene ZNF48 (ENSG00000180035)): −0.5828
- log2(Translational Efficiency) (gene ZNF800 (ENSG00000048405)): −0.2711
